Measurements: patent US20250248398A1, “TICK REPELLENT” (priority 2024, published 2025)

Experiments:
Ixodes scapularis = assay: two-choice still-air olfactometer (3D-printed), 30 minutes, synthetic fungal metabolites; assay type: in vivo; details: female I. scapularis
Description: All behavioral responses of ticks to experimental substrates were tested in two-choice still-air olfactometers (150 mm×50 mm×17 mm; FIGS. 1a, 1b, 1c). […] Each olfactometer had three inset circular chambers (with an inner diameter of 28 mm) interconnected with inset linear paths (24 mm×10 mm×7 mm).
Treatment and control test stimuli were assigned to lateral chambers, alternating the position of stimuli between replicates to account for potential side bias. To initiate an experimental replicate, a single tick was introduced into the central chamber, briefly exposed to human exhale to stimulate movement, and then allowed 30 minutes to respond. […] Olfactometers were sealed with parafilm and a rectangular lid (150 mm×50 mm×3 mm).
A tick was considered a responder if it was found in a lateral chamber after 30 minutes. After each experiment, olfactometers were cleaned with 70% ethanol and hexane. At the end of each experimental day, olfactometers were washed with Sparkleen (Thermo Fisher Scientific, MA, U.S.A), rinsed with distilled water, and air-dried.
Similarly, geosmin dissolved in 25 μL of methanol was applied at doses of 1.0 ng (Exp. 4), 0.1 ng (Exp. 5), and 0.01 ng (Exp. 6), using 25 μL of methanol as the control stimulus. In each experimental replicate, methanol was allowed 5 minutes to evaporate before a tick was introduced into the central olfactometer chamber.
In each experiment, a watch glass (28 mm diameter) fitted with a congruent piece of filter paper was placed in lateral olfactometer chambers, as shown in FIG. 1. In experiment 7, 1 ng of 2-MIB was dissolved in 25 μL of methanol and applied to the treatment filter paper, and 25 μL of methanol was applied to the corresponding control filter paper. In experiment 8, 1 ng of L-borneol and 1 ng of D-borneol were each dissolved in 25 μL of methanol and applied to the treatment filter paper, and 50 μL of methanol was applied to the control filter paper. In each experimental replicate, methanol was allowed 5 minutes to evaporate before a tick was introduced into the central olfactometer chamber.
In each experimental replicate, methanol was allowed 5 minutes to evaporate before a tick was introduced into the central olfactometer chamber.

[1] = test system: lone star ticks, Amblyomma americanum; assay: two-choice still-air olfactometer (3D-printed), 30 minutes; assay type: in vivo; details: female A. americanum, 1 ng in 25 μL methanol
Description: (§1) All behavioral responses of ticks to experimental substrates were tested in two-choice still-air olfactometers (150 mm×50 mm×17 mm; FIGS. 1a, 1b, 1c). Still-air, instead of moving-air, olfactometers were used because off-host ticks encounter fungi in soil microhabitats such as leaf litter where there is typically little, if any, air movement. Each olfactometer had three inset circular chambers (with an inner diameter of 28 mm) interconnected with inset linear paths (24 mm×10 mm×7 mm).
(§2) Olfactometers were modeled and 3D-printed using Autodesk Fusion 360 (Version 13.2.0.9150), Creality Slicer (Version 4.8.2), and an Ender-3 Pro 3D printer (Creality, Shengzhen, China). Olfactometers were printed using translucent 1.75 mm (±0.03 mm dimensional accuracy) polylactic acid (PLA) filament ([…], OH, U.S.A.). To reduce the porosity of 3D-printed olfactometers, XTC-3D brush-on epoxy coating was applied (Smooth-On Inc., PA, U.S.A.).
(§3) Treatment and control test stimuli were assigned to lateral chambers, alternating the position of stimuli between replicates to account for potential side bias. To initiate an experimental replicate, a single tick was introduced into the central chamber, briefly exposed to human exhale to stimulate movement, and then allowed 30 minutes to respond. […]

[2] = test system: American dog ticks, Dermacentor variabilis; assay: as above; assay type: in vivo; details: female D. variabilis, 1 ng in 25 μL methanol
Description: as §1, §2, §3

I. scapularis tick = assay: two-choice still-air Pyrex glass olfactometer, 20 hours, natural and synthetic ant metabolites; parameters: species or system Ixodes scapularis; details: in vivo
Description: Treatment and control stimuli were assigned to the two lateral chambers, alternating the position of stimuli between replicates to account for potential side bias. Both lateral chambers were also fitted with a wet cotton ball (Thermo Fisher Scientific, MA, U.S.A.) to ensure sufficiently high humidity.
To initiate an experimental replicate, a single I. scapularis tick was introduced into the central chamber, briefly exposed to human exhale to stimulate movement, and then allowed 20 hours to respond. A tick was considered a responder if it was found in a lateral chamber or in a connecting glass tube closer to a lateral chamber than the central chamber, as shown in FIG. 2. To prevent tick escape, all three chambers of the olfactometer were sealed with Parafilm (Bemis, WI, U.S.A.) for the duration (i.e., 20 hours) of the experiment.
To minimize the potential for tick escape, and to prevent ticks from sensing cues (e.g., convective heat, infrared radiation, CO2) originating from experimentalists that initiated or scored experiments, olfactometers (n=10-15) were housed in a plexiglass box (112 cm×24 cm×14 cm). Experiments were run under a 14:10 light/dark cycle, thus enabling ticks to respond to test stimuli while maintaining a circadian rhythm. […]

[3] = dose 1 ng in 25 μL methanol on filter paper

| Compound | deterrence of ticks (treatment vs methanol control) (Ixodes scapularis; dose 0.01 ng in 25 μL methanol) | deterrence of ticks (treatment vs methanol control) (Ixodes scapularis; dose 0.1 ng in 25 μL methanol) | deterrence of ticks (treatment vs methanol control) (Ixodes scapularis; [3]) | deterrence of ticks (treatment vs methanol control) [1] | deterrence of ticks (treatment vs methanol control) [2] | deterrence of ticks (treatment vs DCM control) (I. scapularis tick) |
| --- | --- | --- | --- | --- | --- | --- |
| CC1(C)[C@@H]2CC[C@@]1(C)[C@](C)(O)C2 [2-MIB, 2-methylisoborneol] | not deterred | moderately deterred | strongly deterred | deterred | deterred |  |
| O=CO [formic acid] |  |  |  |  |  | deterred neither |
| CC1CCCC2(C)CCCCC12O (stereo not drawn) [geosmin, reference compound] | not deterred | not deterred | not deterred |  |  |  |
